From patent EP4610269A1, “UROKINASE PLASMINOGEN ACTIVATOR SURFACE RECEPTOR (UPAR) LIGANDS FOR DIAGNOSTIC OR THERAPEUTIC USE” (3B Pharmaceuticals GmbH, priority 2024, dated 2025)
Read-outs that look alike come from different tables or passages of the source. Where a SMILES comes first, the peptide text is derived from it. Bridges are numbered along the chain shown (N, C = ends). [ ]: non-standard residue; d: D form. The star is where a group is joined. DOTA = O=C(O)CN1CCN(CC(=O)O)CCN(CC(=O)*)CCN(CC(=O)O)CC1; Phe(4-CONH2) = NC(=O)c1ccc(C[C@H](N)C(=O)O)cc1; Pro(cis-4-F) = O=C(O)[C@@H]1C[C@H](F)CN1; Hyp = O=C(O)[C@@H]1C[C@@H](O)CN1; Pentanoyl(4-Me) = CC(C)CCC(=O)*; Cit = NC(=O)NCCC[C@H](N)C(=O)O; Butoxycarbonyl = CCCCOC(=O)*; Orn = NCCC[C@H](N)C(=O)O; Nva = CCC[C@H](N)C(=O)O; Pentanoyl = CCCCC(=O)*; AEEA = NCCOCCOCC(=O)O

What was measured:
human uPAR (uPAR-Fc) = molecular target: T1, human uPAR (uPAR-Fc) (Homo sapiens, UniProt Q03405); assay: Surface plasmon resonance (SPR) assay, single cycle kinetics; assay type: binding; details: pKD category for uPAR SPR activity assay, uPAR-Fc on Protein A-Chip, 25°C, read-out: pKD CAT (converted)
T1 construct: comprising amino acids Leu23-Arg303 according to UniProt entry Q03405.1; purchased R&D Systems 10378-UK-100
In short: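 uPAR-Fc (Leu23-Arg303 extracellular domains, human IgG1 Fc) captured on Protein A chip to ~2000 RU; single-cycle kinetics at 25°C in HEPES running buffer pH 7.4 with 0.1% DMSO. KD from double-referenced sensorgrams fitted to 1:1 Langmuir model, reported as pKD.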

[1] = Plasma stability assay (mouse plasma); assay type: in vitro ADME; details: mouse plasma (sodium citrate 3.7%), 37°C, LC-MS quantification, read-out: % intact compound remaining after 6h incubation Mouse plasma
In short: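 Compound from a 0.5 mM DMSO stock was spiked into sodium-citrate human or mouse plasma and incubated at 37°C for 0 and 6 h in duplicate. After protein precipitation with internal standard, intact compound was quantified by UHPLC-Q-TOF MS (positive ESI) against matrix calibration, reported as % remaining after 6 h.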

T1 sequence (Q03405 23-303): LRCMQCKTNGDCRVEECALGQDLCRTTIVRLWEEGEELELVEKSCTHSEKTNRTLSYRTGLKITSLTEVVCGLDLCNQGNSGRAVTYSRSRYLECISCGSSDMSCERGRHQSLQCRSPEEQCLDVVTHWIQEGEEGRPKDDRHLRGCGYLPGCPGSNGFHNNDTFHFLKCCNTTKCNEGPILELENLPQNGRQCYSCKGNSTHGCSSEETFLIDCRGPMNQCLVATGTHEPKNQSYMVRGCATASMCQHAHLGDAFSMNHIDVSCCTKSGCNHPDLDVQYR

Kd (human uPAR (uPAR-Fc); single cycle kinetics) [nM]	remaining at 6 h, 9.8 µM [1] [%]	Kd (human uPAR (uPAR-Fc)) [nM]	Structure (SMILES)
< 1.58	90	–	CC[C@H](C)[C@@H]1NC(=O)[C@@H](C)NC(=O)[C@@H]2CCCN2C(=O)[C@H](Cc2ccccc2)NC(=O)[C@H](Cc2ccc(O)cc2)NC(=O)[C@H](CC(=O)O)NC(=O)[C@H](CCCNC(N)=O)NC(=O)[C@@H](NC(=O)CCC(C)C)CSSC[C@@H](C(N)=O)NC(=O)[C@H](CC(C)C)NC1=O [UPAR-434, iHex-[Cys-Cit-Asp-Tyr-Phe-Pro-ala-Ile-Leu-Cys]-NH2] ({Pentanoyl(4-Me)}-C[Cit]DYFP[dA]ILC-NH2; disulfide 1-10)
–	82	< 1.58	CCCCC(=O)N[C@H]1CSSC[C@@H](C(N)=O)NC(=O)[C@H](CCC)NC(=O)[C@H]([C@@H](C)CC)NC(=O)[C@@H]2C[C@@H](O)CN2C(=O)[C@@H]2CCCN2C(=O)[C@H](Cc2ccccc2)NC(=O)[C@H](Cc2ccc(O)cc2)NC(=O)[C@H](CCCCNC(=O)CN2CCN(CC(=O)O)CCN(CC(=O)O)CCN(CC(=O)O)CC2)NC(=O)[C@H](CCCNC(N)=O)NC1=O [UPAR-261, Pent-[Cys-Cit-Lys(DOTA)-Tyr-Phe-Pro-Hyp-Ile-Nva-Cys]-NH2] (Pentanoyl-C[Cit]K(DOTA)YFP[Hyp]I[Nva]C-NH2; disulfide 1-10)
–	74	< 1.58	CC[C@H](C)[C@@H]1NC(=O)[C@@H](C)NC(=O)[C@@H]2CCCN2C(=O)[C@H](Cc2ccccc2)NC(=O)[C@H](Cc2ccc(O)cc2)NC(=O)[C@H](CCC(N)=O)NC(=O)[C@H](CCCNC(N)=O)NC(=O)[C@@H](NC(=O)[C@H](CC(C)C)NC(=O)COCCOCCNC(=O)CN2CCN(CC(=O)O)CCN(CC(=O)O)CCN(CC(=O)O)CC2)CSSC[C@@H](C(N)=O)NC(=O)[C@H](CC(C)C)NC1=O [UPAR-245, DOTA-O2Oc-Leu-[Cys-Cit-Gln-Tyr-Phe-Pro-ala-Ile-Leu-Cys]-NH2] ({DOTA-AEEA}-LC[Cit]QYFP[dA]ILC-NH2; disulfide 2-11)

Structure (SMILES)	Kd (human uPAR (uPAR-Fc); single cycle kinetics) [nM]	remaining at 6 h, 9.8 µM [1] [%]	Kd (human uPAR (uPAR-Fc)) [nM]
CCCCOC(=O)N[C@H]1CSSC[C@@H](C(N)=O)NC(=O)[C@H](CCC)NC(=O)[C@H]([C@@H](C)CC)NC(=O)[C@@H]2C[C@@H](O)CN2C(=O)[C@@H]2C[C@H](F)CN2C(=O)[C@H](Cc2ccccc2)NC(=O)[C@H](Cc2ccc(C(N)=O)cc2)NC(=O)[C@H](CCCNC(=O)CN2CCN(CC(=O)O)CCN(CC(=O)O)CCN(CC(=O)O)CC2)NC(=O)[C@H]([C@@H](C)O)NC1=O [UPAR-276, Butoc-[Cys-Thr-Orn(DOTA)-Pcnf-Phe-4Cfp-Hyp-Ile-Nva-Cys]-NHz] (Butoxycarbonyl-CT[Orn](DOTA)[Phe(4-CONH2)]F[Pro(cis-4-F)][Hyp]I[Nva]C-NH2; disulfide 1-10)	–	89	< 1.58
